Results from PubChem BioAssay (NCI).
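Each compound was tested at five concentrations against cells in 96-well plates for 48 hours. TGI: total growth inhibition.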

Assays:
Test in all cases: NCI tumour cell line growth inhibition, 48 h
MALME-3M melanoma = test system: MALME-3M melanoma
HOP-62 NSCLC = test system: HOP-62 NSCLC
NCI-H522 lung = test system: NCI-H522 lung
SK-MEL-2 melanoma = test system: SK-MEL-2 melanoma
BT-549 breast = test system: BT-549 breast
ACHN renal = test system: ACHN renal
M14 melanoma = test system: M14 melanoma
OVCAR-5 ovarian = test system: OVCAR-5 ovarian
HOP-92 NSCLC = test system: HOP-92 NSCLC
LOX IMVI melanoma = test system: LOX IMVI melanoma
OVCAR-8 ovarian = test system: OVCAR-8 ovarian
HL-60(TB) leukemia = test system: HL-60(TB) leukemia
786-0 renal = test system: 786-0 renal
MOLT-4 leukemia = test system: MOLT-4 leukemia
MCF7 breast = test system: MCF7 breast
DU-145 prostate = test system: DU-145 prostate
SF-539 CNS = test system: SF-539 CNS
RPMI-8226 leukemia = test system: RPMI-8226 leukemia
U251 CNS = test system: U251 CNS
OVCAR-4 ovarian = test system: OVCAR-4 ovarian
SR leukemia = test system: SR leukemia
SK-MEL-28 melanoma = test system: SK-MEL-28 melanoma
IGROV1 ovarian = test system: IGROV1 ovarian
MDA-N = test system: MDA-N
SK-MEL-5 melanoma = test system: SK-MEL-5 melanoma
NCI-H23 lung = test system: NCI-H23 lung
SNB-19 CNS = test system: SNB-19 CNS
MDA-MB-435 = test system: MDA-MB-435
HT29 colon = test system: HT29 colon
UACC-62 melanoma = test system: UACC-62 melanoma
SF-295 CNS = test system: SF-295 CNS
SW-620 colon = test system: SW-620 colon
UO-31 renal = test system: UO-31 renal
T-47D breast = test system: T-47D breast
SK-OV-3 ovarian = test system: SK-OV-3 ovarian
HCT-116 colon = test system: HCT-116 colon
NCI-H460 lung = test system: NCI-H460 lung
SF-268 CNS = test system: SF-268 CNS
HCT-15 colon = test system: HCT-15 colon
NCI-H226 lung = test system: NCI-H226 lung
OVCAR-3 ovarian = test system: OVCAR-3 ovarian
MDA-MB-231 breast = test system: MDA-MB-231 breast
HS 578T breast = test system: HS 578T breast
SN12C renal = test system: SN12C renal
K-562 leukemia = test system: K-562 leukemia
COLO 205 colon = test system: COLO 205 colon
CCRF-CEM leukemia = test system: CCRF-CEM leukemia
NCI/ADR-RES ovarian = test system: NCI/ADR-RES ovarian
KM12 colon = test system: KM12 colon
EKVX NSCLC = test system: EKVX NSCLC
CAKI-1 renal = test system: CAKI-1 renal
RXF 393 renal = test system: RXF 393 renal
PC-3 prostate = test system: PC-3 prostate
A549 NSCLC = test system: A549 NSCLC
A498 renal = test system: A498 renal
UACC-257 melanoma = test system: UACC-257 melanoma
TK-10 renal = test system: TK-10 renal
SNB-75 CNS = test system: SNB-75 CNS

Measured: TGI

COc1ccc2cc(C(=O)CCC(=O)O)ccc2c1
> 100 µM: all assays above
